Among the data in patent publication US11981679B2, “Tricyclic compounds, compositions and medicinal applications thereof” (IMPETIS BIOSCIENCES LTD., priority 2018, dated 2024) are Ki values, retold here.

In one assay the target is T1, A2A adenosine receptor (Homo sapiens, UniProt P29274).
T1 construct: expressed in transfected cells; host or cells: HEK-293 (HEK-A2A)
The assay can be described thus: cAMP assay for adenosine receptor (HTRF), HEK-A2A. It counts as cell-based. Conditions: HEK-A2A cells, agonist 10 nM CGS-21680, Rolipram 20 μM, read-out: A2A Functional Ki. How it is done: (§1) cAMP Assay for Adenosine Receptor.
(§2) The functional activity of test compounds on A2A and A2B adenosine receptors and selectivity over A1 adenosine was determined using HTRF based cAMP assay (Cisbio). Briefly, overnight seeded cultures (HEK-A1, HEK-A2A, HEK-A2B) were treated with 1U/ml ADA for 90 minutes at 37° C. and 5% CO2. Cell suspensions were treated with increasing concentrations of test compounds for 15 minutes followed by treatment with agonists for 15 minutes (1 nM CPA for HEK-A1 and 70 nM NECA for HEK-A2B) or 30 min (10 nM CGS-21680 for HEK-A2A) at room temperature with continuous mixing in incomplete DMEM supplemented with 1U/ml ADA. Rolipram (20 μM) was included in the assay for A1 and A2A adenosine receptors. For functional activity of HEK-A1, cell suspensions were further treated with forskolin for 30 minutes at room temperature with constant mixing. cAMP levels were quantified using a Flex Station III (Molecular Devices) at an excitation maximum of 313 nm and emission maxima of 620 nm and 665 nm. Data was analyzed using GraphPad Prism to generate IC50 and Ki. The biological activity data is provided in the Table below. <10 nM are represented as ++++, 10-30 nM as +++, 30-100 nM ++ and the K, value >100 nM as +.
On the technique in general: cAMP levels reflect the balance of adenylyl cyclase and phosphodiesterase activity.

In another assay the target is T2, A2B adenosine receptor (Homo sapiens, UniProt P29275).
T2 construct: expressed in transfected cells; host or cells: HEK-293 (HEK-A2B)
T2 sequence (P29275 1-332): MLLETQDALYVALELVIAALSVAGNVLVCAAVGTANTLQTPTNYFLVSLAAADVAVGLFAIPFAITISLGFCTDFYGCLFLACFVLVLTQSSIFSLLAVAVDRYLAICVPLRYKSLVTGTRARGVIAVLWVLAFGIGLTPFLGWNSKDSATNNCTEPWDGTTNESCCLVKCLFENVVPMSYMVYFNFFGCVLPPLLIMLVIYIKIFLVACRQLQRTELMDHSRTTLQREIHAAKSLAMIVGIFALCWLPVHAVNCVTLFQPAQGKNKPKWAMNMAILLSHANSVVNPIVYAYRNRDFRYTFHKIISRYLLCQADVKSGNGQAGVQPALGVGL
The assay can be described thus: cAMP assay for adenosine receptor (HTRF), HEK-A2B. Conditions: HEK-A2B cells, agonist 70 nM NECA, read-out: A2B Functional Ki. It counts as cell-based. As for the experimental part:
as §1, §2

T1 sequence (P29274 whole entry): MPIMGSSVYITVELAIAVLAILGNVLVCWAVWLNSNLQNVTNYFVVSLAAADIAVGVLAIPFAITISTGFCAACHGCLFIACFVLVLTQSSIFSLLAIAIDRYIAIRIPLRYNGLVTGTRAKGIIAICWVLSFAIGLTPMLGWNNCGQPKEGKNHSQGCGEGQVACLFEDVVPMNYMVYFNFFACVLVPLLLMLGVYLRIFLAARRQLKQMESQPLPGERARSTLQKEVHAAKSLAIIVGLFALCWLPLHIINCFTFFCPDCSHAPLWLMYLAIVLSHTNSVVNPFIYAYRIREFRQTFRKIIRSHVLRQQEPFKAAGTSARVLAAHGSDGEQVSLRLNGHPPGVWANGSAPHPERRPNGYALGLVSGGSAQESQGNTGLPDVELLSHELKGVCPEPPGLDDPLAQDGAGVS

Turning to `CCCn1c(=O)c2[nH]c(-c3cnn(C(C)CC)c3)nc2n2ccnc12` (stereo not shown) [Example B20, 5-propyl-2-(1-sec-butylpyrazol-4-yl)-3H-imidazo[2,1-b]purin-4-one], the Ki on A2A adenosine receptor and on A2B adenosine receptor was below 10 nM each time.
Take `CCCn1c(=O)c2[nH]c(-c3cnn(CC#Cc4cc(C(=O)OCC)ccc4C)c3)nc2n2ccnc12` [Example B6, Ethyl 4-methyl-3-[3-[4-(4-oxo-5-propyl-3H-imidazo[2,1-b]purin-2-yl)pyrazol-1-yl]prop-1-ynyl]benzoate]: the figures for the Ki at A2A adenosine receptor and on A2B adenosine receptor were 30 to 100 nM and below 10 nM, respectively.
In the case of `CCCn1c(=O)c2[nH]c(-c3cnn(CC)c3)nc2n2ccnc12` [Example B10, 2-(1-ethylpyrazol-4-yl)-5-propyl-3H-imidazo[2,1-b]purin-4-one], the Ki on A2A adenosine receptor was 10 to 30 nM; at A2B adenosine receptor it was below 10 nM.
The matching figures for `Cn1c(=O)c2[nH]c(-c3cnn(Cc4cccc(C(F)(F)F)c4)c3)nc2n2ccnc12` [Example A3, 5-methyl-2-[1-[[3-(trifluoromethyl)phenyl]methyl]pyrazol-4-yl]-3H-imidazo[2,1-b]purin-4-one]: 10 to 30 nM and below 10 nM.
The matching figures for `CCCn1c(=O)c2[nH]c(-c3cnn(Cc4cccc(C(F)(F)F)c4)c3)nc2n2ccnc12` [Example A1, 5-propyl-2-[1-[[3-(trifluoromethyl)phenyl]methyl]pyrazol-4-yl]-3H-imidazo[2,1-b]purin-4-one]: below 10 nM and below 10 nM.
With `CCCn1c(=O)c2[nH]c(-c3cnn(CC4CC(=O)N(c5cncc(C(F)(F)F)c5)C4)c3)nc2n2ccnc12` (stereo not shown) [Example C2, 2-[1-[[5-oxo-1-[5-(trifluoromethyl)-3-pyridyl]pyrrolidin-3-yl]methyl]pyrazol-4-yl]-5-propyl-3H-imidazo[2,1-b]purin-4-one], the values for the Ki on A2A adenosine receptor and at A2B adenosine receptor were 30 to 100 nM and below 10 nM, respectively.
Consider `CCCn1c(=O)c2[nH]c(-c3cnn(CC(C)(C)C)c3)nc2n2ccnc12` [Example B19, 2-[1-(2,2-dimethylpropyl)pyrazol-4-yl]-5-propyl-3H-imidazo[2,1-b]purin-4-one], for which the Ki at A2A adenosine receptor and on A2B adenosine receptor was below 10 nM in each case.
With `CCCn1c(=O)c2[nH]c(-c3cnn(CC4CCC4)c3)nc2n2ccnc12` [Example B16, 2-[1-(cyclobutylmethyl)pyrazol-4-yl]-5-propyl-3H-imidazo[2,1-b]purin-4-one], the Ki on A2A adenosine receptor and on A2B adenosine receptor was below 10 nM each time.
For `CCCn1c(=O)c2[nH]c(-c3cnn(Cc4cccc(C(C)(C)O)c4)c3)nc2n2ccnc12` [Example F1, 2-[1-[[3-(1-hydroxy-1-methyl-ethyl)phenyl]methyl]pyrazol-4-yl]-5-propyl-3H-imidazo[2,1-b]purin-4-one], the figures for the Ki on A2A adenosine receptor and on A2B adenosine receptor were 10 to 30 nM and below 10 nM, respectively.
Take `CCCn1c(=O)c2[nH]c(-c3cnn(CC(C)C)c3)nc2n2ccnc12` [Example B17, 2-(1-isobutylpyrazol-4-yl)-5-propyl-3H-imidazo[2,1-b]purin-4-one]: the Ki on A2A adenosine receptor is 10 to 30 nM; on A2B adenosine receptor it was below 10 nM.
On to `CCCn1c(=O)c2[nH]c(-c3cnn(CC#Cc4cccc(C(=O)OCC)c4)c3)nc2n2ccnc12` [Example B2, Ethyl 3-[3-[4-(4-oxo-5-propyl-3H-imidazo[2,1-b]purin-2-yl)pyrazol-1-yl]prop-1-ynyl]benzoate], for which the Ki is 10 to 30 nM on A2A adenosine receptor and below 10 nM at A2B adenosine receptor.
For the molecule `CCCn1c(=O)c2[nH]c(-c3cnn(C(C)C)c3)nc2n2ccnc12` [Example B8, 2-(1-isopropylpyrazol-4-yl)-5-propyl-3H-imidazo[2,1-b]purin-4-one], the Ki at A2A adenosine receptor is 10 to 30 nM; at A2B adenosine receptor, below 10 nM.
For `CCCn1c(=O)c2[nH]c(-c3cnn(CCOC)c3)nc2n2ccnc12` [Example B11, 2-[1-(2-methoxyethyl)pyrazol-4-yl]-5-propyl-3H-imidazo[2,1-b]purin-4-one], the figures for the Ki at A2A adenosine receptor and at A2B adenosine receptor were above 100 nM and 10 to 30 nM, respectively.
Turning to `CCCn1c(=O)c2[nH]c(-c3cnn(C)c3)nc2n2ccnc12` [Example A6, 2-(1-methylpyrazol-4-yl)-5-propyl-3H-imidazo[2,1-b]purin-4-one], the Ki at A2A adenosine receptor is above 100 nM.
With `CCCCn1cc(-c2nc3c([nH]2)c(=O)n(CCC)c2nccn32)cn1` [Example B9, 2-(1-butylpyrazol-4-yl)-5-propyl-3H-imidazo[2,1-b]purin-4-one], the figures for the Ki on A2A adenosine receptor and at A2B adenosine receptor were 10 to 30 nM and below 10 nM, respectively.
With `CCCn1c(=O)c2[nH]c(-c3cnn(C(C)(C)CC)c3)nc2n2ccnc12` [Example A7, 2-[1-(1,1-dimethylpropyl)pyrazol-4-yl]-5-propyl-3H-imidazo[2,1-b]purin-4-one], the Ki on A2A adenosine receptor and on A2B adenosine receptor was below 10 nM each time.
Regarding `CCCn1c(=O)c2[nH]c(-c3cnn(CC(=O)N(C)C)c3)nc2n2ccnc12` [Example B14, N,N-dimethyl-2-[4-(4-oxo-5-propyl-3H-imidazo[2,1-b]purin-2-yl)pyrazol-1-yl]acetamide], the Ki at A2A adenosine receptor is above 100 nM; at A2B adenosine receptor it was below 10 nM.
Take `CCCn1c(=O)c2[nH]c(-c3cnn(CCN4CCCCC4)c3)nc2n2ccnc12` [Example D1, 2-[1-[2-(1-piperidyl)ethyl]pyrazol-4-yl]-5-propyl-3H-imidazo[2,1-b]purin-4-one]: the Ki on A2A adenosine receptor was 30 to 100 nM; at A2B adenosine receptor it was below 10 nM.
The like results for `CCCn1c(=O)c2[nH]c(-c3cnn(CC#Cc4cccc(OC(F)(F)F)c4)c3)nc2n2ccnc12` [Example B3, 5-propyl-2-[1-[3-[3-(trifluoromethoxy)phenyl]prop-2-ynyl]pyrazol-4-yl]-3H-imidazo[2,1-b]purin-4-one] were, in that order, 10 to 30 nM and below 10 nM.
On to `CCCn1c(=O)c2[nH]c(-c3cnn(CCN(C)C)c3)nc2n2ccnc12` [Example B12, 2-[1-(2-dimethylaminoethyl)pyrazol-4-yl]-5-propyl-3H-imidazo[2,1-b]purin-4-one], for which the Ki was above 100 nM on A2A adenosine receptor and 10 to 30 nM on A2B adenosine receptor.
In the case of `CCCn1c(=O)c2[nH]c(-c3cnn(Cc4cccc(C(=O)O)c4)c3)nc2n2ccnc12` [Example G1, 3-[[4-(4-oxo-5-propyl-3H-imidazo[2,1-b]purin-2-yl)pyrazol-1-yl]methyl]benzoic Acid], the results for the Ki at A2A adenosine receptor and at A2B adenosine receptor were 10 to 30 nM and below 10 nM, respectively.
As for `CCCn1c(=O)c2[nH]c(-c3cnn(CC(=O)O)c3)nc2n2ccnc12` [Example H1, 2-[4-(4-oxo-5-propyl-3H-imidazo[2,1-b]purin-2-yl)pyrazol-1-yl]acetic acid], the Ki at A2A adenosine receptor was above 100 nM; at A2B adenosine receptor, 30 to 100 nM.
For the molecule `CCCn1c(=O)c2[nH]c(-c3cnn(CC(O)CO)c3)nc2n2ccnc12` (stereo not shown) [Example J1, 2-[1-(2,3-dihydroxypropyl)pyrazol-4-yl]-5-propyl-3H-imidazo[2,1-b]purin-4-one], the Ki at A2A adenosine receptor and at A2B adenosine receptor was 30 to 100 nM in each case.
As for `CCCn1cc(-c2nc3c([nH]2)c(=O)n(CCC)c2nccn32)cn1` [Example B13, 5-propyl-2-(1-propylpyrazol-4-yl)-3H-imidazo[2,1-b]purin-4-one], the Ki on A2A adenosine receptor and on A2B adenosine receptor was below 10 nM throughout.
Turning to `CCCn1c(=O)c2[nH]c(-c3cnn(Cc4cccc(C#N)c4)c3)nc2n2ccnc12` [Example B7, 3-[[4-(4-oxo-5-propyl-3H-imidazo[2,1-b]purin-2-yl)pyrazol-1-yl]methyl]benzonitrile], the inhibition constant Ki on A2A adenosine receptor and at A2B adenosine receptor was below 10 nM throughout.
Regarding `CCCn1c(=O)c2[nH]c(-c3cnn(Cc4cccc(CO)c4)c3)nc2n2ccnc12` [Example E1, 2-[1-[[3-(hydroxymethyl)phenyl]methyl]pyrazol-4-yl]-5-propyl-3H-imidazo[2,1-b]purin-4-one], the Ki at A2A adenosine receptor and on A2B adenosine receptor was below 10 nM throughout.
As for `CCCn1c(=O)c2[nH]c(-c3cnn(CCc4cccc(F)c4)c3)nc2n2ccnc12` [Example A5, 2-[1-[2-(3-fluorophenyl)ethyl]pyrazol-4-yl]-5-propyl-3H-imidazo[2,1-b]purin-4-one], the Ki on A2A adenosine receptor lay within 30 to 100 nM.

As usually defined, the Ki is a dissociation constant, usually derived from enzyme kinetics or from competition with a known ligand.
